Earlier results on four compounds are cited in patent publication US20060251750A1, “Soy formulations and their use in skin care” (priority 2002, published 2006).

The test system of one data set is UV radiation. The conditions noted are these: lotions.
The next data set relates to squamous cell carcinomas. The settings on record: daily topical applications of lotions.
The test system of the next data set is photocarcinogenesis. The conditions noted are these: hairless mice; both topical and oral administration.

`Oc1ccc(C2=Cc3ccc(O)cc3OC2)cc1` [dehydroequol]: in the data set on UV radiation, the “inflammatory edema reactions induced by UV radiation” value (“inflammatory edema reactions induced” below) was “reduce” and the “suppression of contact hypersensitivity induced by UV radiation” value (shortened to “suppression”) is given as “reduce”.

With `Oc1ccc([C@H]2COc3cc(O)ccc3C2)cc1` [equol], in the data set with UV radiation, the “inflammatory edema reactions induced” value is listed as “reduce” and the “suppression” value is on record as “reduce”. Further, in the data set on squamous cell carcinomas, the “proportion of tumors progressing from benign papillomas to malignant squamous cell carcinomas” value is reported as “reduce” and the “size of these carcinomas” value is recorded as “reduce”.

As to `O=c1c(-c2ccc(O)cc2)coc2cc(O)cc(O)c12` [genistein], in the data set on UV radiation, the “inflammatory edema reactions induced” value was “reduce” and the “suppression” value is on record as “reduce”. In the data set with photocarcinogenesis, the “initiation and promotion of photocarcinogenesis” value is reported as “inhibit”; the “tumor incidence and multiplicity” value is on record as “reduction”.

Turning to isoequol, in the data set with UV radiation, the “inflammatory edema reactions induced” value is listed as “reduce” and the “suppression” value is “reduce”.
